# PubChem BioAssay (NCI)
#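 Where inhibition never reached the appropriate level, the endpoint shown equals the highest concentration tested. Otherwise, values were interpolated linearly from a five-concentration, 48-hour dose response in 96-well plates. The concentration for full growth arrest is given as TGI.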
# Assays:
# Assay in all cases: DTP human tumour cell line panel, 48 h
# A549 NSCLC = test system: A549 NSCLC
# COLO 205 colon = test system: COLO 205 colon
# EKVX NSCLC = test system: EKVX NSCLC
# HCC-2998 colon = test system: HCC-2998 colon
# HCT-116 colon = test system: HCT-116 colon
# HL-60(TB) leukemia = test system: HL-60(TB) leukemia
# HT29 colon = test system: HT29 colon
# IGROV1 ovarian = test system: IGROV1 ovarian
# MALME-3M melanoma = test system: MALME-3M melanoma
# MDA-MB-231 breast = test system: MDA-MB-231 breast
# MOLT-4 leukemia = test system: MOLT-4 leukemia
# OVCAR-3 ovarian = test system: OVCAR-3 ovarian
# OVCAR-5 ovarian = test system: OVCAR-5 ovarian
# RPMI-8226 leukemia = test system: RPMI-8226 leukemia
# RXF 393 renal = test system: RXF 393 renal
# SNB-19 CNS = test system: SNB-19 CNS
# U251 CNS = test system: U251 CNS
# UACC-62 melanoma = test system: UACC-62 melanoma
# UO-31 renal = test system: UO-31 renal
# SN12C renal = test system: SN12C renal
Structure (SMILES),TGI (A549 NSCLC),TGI (COLO 205 colon),TGI (EKVX NSCLC),TGI (HCC-2998 colon),TGI (HCT-116 colon),TGI (HL-60(TB) leukemia),TGI (HT29 colon),TGI (IGROV1 ovarian),TGI (MALME-3M melanoma),TGI (MDA-MB-231 breast),TGI (MOLT-4 leukemia),TGI (OVCAR-3 ovarian),TGI (OVCAR-5 ovarian),TGI (RPMI-8226 leukemia),TGI (RXF 393 renal),TGI (SNB-19 CNS),TGI (U251 CNS),TGI (UACC-62 melanoma),TGI (UO-31 renal),TGI (SN12C renal)
COc1ccc(-c2csc(Cc3nc4ccccc4c(=O)n3-c3ccc(Cl)cc3)n2)cc1,> 100 µM,> 100 µM,62.7 µM,> 100 µM,57.9 µM,> 100 µM,> 100 µM,> 100 µM,> 100 µM,> 100 µM,67.4 µM,> 100 µM,62.1 µM,45.8 µM,> 100 µM,77.7 µM,> 100 µM,68.3 µM,> 100 µM,
Nc1nc(Cl)c(N)c(NCC2(CO)CCCC2)n1,> 100 µM,,> 100 µM,> 100 µM,> 100 µM,> 100 µM,> 100 µM,> 100 µM,> 100 µM,> 100 µM,> 100 µM,> 100 µM,> 100 µM,> 100 µM,> 100 µM,> 100 µM,> 100 µM,7.44 µM,> 100 µM,> 100 µM
O=C1c2cccc3cccc(c23)C(=O)N1CCCNCCCNCCCCNCCCNCCCN1C(=O)c2cccc3cccc(c23)C1=O,12.9 µM,,22 µM,16.8 µM,8.17 µM,4.64 µM,5.5 µM,24.5 µM,7.03 µM,22.4 µM,2.84 µM,19.6 µM,21.9 µM,> 34 µM,19.1 µM,15.9 µM,20.2 µM,12.3 µM,30.4 µM,16.4 µM
O=C(NCCCl)N(O)C(=O)Nc1ccccc1,> 100 µM,> 100 µM,> 100 µM,> 100 µM,> 100 µM,> 100 µM,> 100 µM,> 100 µM,> 100 µM,> 100 µM,> 100 µM,> 100 µM,> 100 µM,> 100 µM,> 100 µM,> 100 µM,> 100 µM,> 100 µM,> 100 µM,> 100 µM
O=C(/N=C/c1c(O)c2ccccc2oc1=O)Oc1ccccc1,> 100 µM,> 100 µM,> 100 µM,> 100 µM,71.8 µM,> 100 µM,> 100 µM,60.7 µM,61.7 µM,84.1 µM,96.4 µM,44.2 µM,> 100 µM,> 100 µM,31.1 µM,> 100 µM,87.5 µM,79.7 µM,63.6 µM,51.7 µM
CC1CC[C@@]2(OC1)OC1C[C@H]3[C@@H]4CC[C@H]5CC(OC6OC(CO)C(O)C(OC7OC(CO)C(OC8OC(CO)C(O)C(OC9OC(CO)C(O)C(O)C9O)C8OC8OC(CO)C(O)C(O)C8O)C(O)C7O)C6O)[C@H](O)CC5(C)[C@H]4CCC3(C)C1[C@@H]2C (some centres not stated),21.6 µM,6.04 µM,10.8 µM,4.71 µM,11.5 µM,9.3 µM,11.1 µM,4.59 µM,15.1 µM,5.87 µM,16.4 µM,1.93 µM,12.9 µM,12.9 µM,3.27 µM,9.47 µM,9.43 µM,16.6 µM,6.9 µM,9.03 µM
CC(=O)Oc1ccc2c(c1)c1c(=O)oc(C)nc1n2Cc1ccccc1,> 100 µM,> 100 µM,> 100 µM,> 100 µM,> 100 µM,> 100 µM,> 100 µM,> 100 µM,> 100 µM,> 100 µM,> 100 µM,> 100 µM,> 100 µM,> 100 µM,68.5 µM,> 100 µM,> 100 µM,> 31.6 µM,13.8 µM,> 100 µM
CCCCCCCCCCCCC/C=C/[C@@H](O)[C@H](COC1OC(CO)C(OC2OC(CO)C(O)C(OC3(C(=O)O)CC(O)C(NC(C)=O)C(C(O)C(O)CO)O3)C2O)C(O)C1O)N=[N+]=[N-] (some centres not stated),> 100 µM,33.9 µM,> 100 µM,> 100 µM,> 100 µM,80.8 µM,58.5 µM,85.5 µM,55.5 µM,> 100 µM,43.4 µM,> 100 µM,> 100 µM,> 100 µM,48.8 µM,93.7 µM,36.1 µM,37.1 µM,44.1 µM,> 100 µM
CCN1CCC(O)(/C=C/c2ccc(C)cc2)C(C(=O)/C=C/c2ccc(C)cc2)C1 (configuration not stated),21.4 µM,4.45 µM,26.3 µM,5.08 µM,4.63 µM,5.15 µM,6.89 µM,17.5 µM,14.8 µM,5.48 µM,4.59 µM,18.4 µM,23.2 µM,10.8 µM,10.6 µM,23.5 µM,9.24 µM,12.3 µM,12.4 µM,20.6 µM
COC(=O)[C@]12CCC(C)(C)C[C@H]1[C@H]1C(=O)C=C3[C@@]4(C)C=C(C#N)C(=O)C(C)(C)[C@@H]4CC[C@@]3(C)[C@]1(C)CC2,1.29 µM,0.122 µM,0.208 µM,0.0305 µM,0.0441 µM,0.421 µM,,1.15 µM,0.143 µM,0.106 µM,1.56 µM,0.0615 µM,0.194 µM,0.126 µM,> 100 µM,0.243 µM,0.0744 µM,0.0945 µM,1.15 µM,0.187 µM
CC1C[C@]2(C)C(=NCCN)Nc3ccccc3[C@@H]2N(C)c2ccccc21 (some centres not stated),31.6 µM,5.14 µM,33 µM,9.69 µM,21 µM,36 µM,13.2 µM,27.6 µM,9.64 µM,21.1 µM,> 100 µM,23.7 µM,27.4 µM,47.4 µM,22.1 µM,27.7 µM,,28.1 µM,23.2 µM,28.4 µM
CC(C)CC(NC(=O)C(CI)Cc1ccccc1)C(=O)Nc1ccccc1 (configuration not stated),> 100 µM,> 100 µM,> 100 µM,> 100 µM,> 100 µM,> 100 µM,,> 100 µM,> 100 µM,> 100 µM,> 100 µM,> 100 µM,> 100 µM,> 100 µM,> 100 µM,> 100 µM,> 100 µM,> 100 µM,> 100 µM,> 100 µM
COc1ccc2c(c1)nc1n2C(c2c(Cl)cccc2Cl)SC1 (configuration not stated),> 100 µM,> 100 µM,> 100 µM,> 86.8 µM,> 81.2 µM,> 22.7 µM,85.9 µM,> 100 µM,14.5 µM,> 100 µM,> 100 µM,> 93 µM,> 100 µM,> 100 µM,> 70.3 µM,> 92.7 µM,> 65.5 µM,> 100 µM,> 100 µM,> 100 µM
Nc1nc(NCC2(CO)CC2)cc(=O)[nH]1,> 100 µM,> 100 µM,> 100 µM,> 100 µM,> 100 µM,> 100 µM,> 100 µM,> 100 µM,> 100 µM,> 100 µM,> 100 µM,> 100 µM,> 100 µM,> 100 µM,> 100 µM,> 100 µM,> 100 µM,> 100 µM,> 100 µM,> 100 µM
CNC(=S)N=Nc1c(O)n(CN2CCOCC2)c2ccc([N+](=O)[O-])cc12,> 100 µM,91.3 µM,43.7 µM,45.1 µM,28.7 µM,69.8 µM,> 100 µM,,43.3 µM,25 µM,> 100 µM,34.5 µM,70.5 µM,50.5 µM,30 µM,61.2 µM,37.6 µM,33.3 µM,14.2 µM,38.5 µM
C=C(C(=O)O)[C@@H]1C[C@@H](OC(C)=O)[C@]2(C)CC/C=C(\C)CCC[C@H](C)[C@H](O)[C@@H]1O2,> 100 µM,> 100 µM,> 100 µM,> 100 µM,> 100 µM,57.4 µM,> 100 µM,> 100 µM,> 100 µM,> 100 µM,72.1 µM,> 100 µM,> 100 µM,> 100 µM,65.9 µM,,> 100 µM,> 100 µM,,> 100 µM
Cc1cc(C)c2c(c1)C/C(=C\c1ccccc1C(=O)O)C2=O,> 100 µM,,> 100 µM,> 100 µM,> 100 µM,> 100 µM,> 100 µM,> 100 µM,> 100 µM,> 100 µM,> 100 µM,> 100 µM,> 100 µM,> 100 µM,> 100 µM,> 100 µM,> 100 µM,,> 100 µM,> 100 µM
O=C(CCc1cc(O)ccc1O)OCCc1ccccc1,> 100 µM,22.6 µM,61.9 µM,> 80.7 µM,27.3 µM,5.92 µM,> 100 µM,22.3 µM,23.5 µM,42.7 µM,> 21 µM,,> 52.1 µM,> 23.2 µM,25.9 µM,> 100 µM,29.1 µM,33.9 µM,18.7 µM,44.9 µM
CN(C)c1ccc(/C=N\NC(=O)Nc2cccc3ccccc23)cc1,> 100 µM,> 100 µM,> 100 µM,> 100 µM,65.2 µM,7.03 µM,> 100 µM,36.6 µM,27.4 µM,32.9 µM,> 100 µM,,> 100 µM,> 100 µM,> 100 µM,7.5 µM,39.5 µM,,51.6 µM,31.4 µM
CCCCCCOc1ccc(Nc2c(O)c3c(c(O)c2Cl)C(=O)C=CC3=O)cc1,> 10 µM,4.15 µM,> 10 µM,3.86 µM,> 6.12 µM,3.74 µM,> 7.46 µM,,4.04 µM,> 6.11 µM,> 6.98 µM,4.77 µM,> 10 µM,5.11 µM,4.41 µM,> 9.63 µM,> 6.07 µM,7.99 µM,> 5.81 µM,4.54 µM
Cc1nn(C(=O)c2ccc(Cl)cc2)c2c1C(/C=C/c1ccccc1)SC(N)=N2 (configuration not stated),> 10 µM,> 10 µM,> 10 µM,> 10 µM,> 10 µM,> 10 µM,> 10 µM,> 10 µM,> 10 µM,> 10 µM,> 10 µM,> 10 µM,> 10 µM,> 10 µM,> 10 µM,> 10 µM,> 10 µM,> 10 µM,,> 10 µM
COC(=O)CC1C=CC(C)(OC)OO1 (configuration not stated),> 100 µM,> 100 µM,> 100 µM,> 100 µM,> 100 µM,> 100 µM,> 100 µM,> 100 µM,> 100 µM,> 100 µM,,> 100 µM,> 100 µM,> 100 µM,> 100 µM,> 100 µM,> 100 µM,> 100 µM,> 100 µM,> 100 µM
Cc1cc(C)c(C[C@H]2COC(=O)[C@]2(O)Cc2c(C)cc(C)cc2C)c(C)c1,34 µM,40.3 µM,28.2 µM,30.7 µM,43 µM,42.4 µM,> 100 µM,,29.9 µM,35.9 µM,> 100 µM,31.3 µM,35.9 µM,77.7 µM,25.4 µM,39.4 µM,38.4 µM,28.5 µM,38.4 µM,36.8 µM
